Assay results reported in article PMC5003625 (Journal of medicinal chemistry, 2016).

Experiments:
[1] = target: EZH1 pentameric complex (EZH1:EED:SUZ12:RBBP4:AEBP2) (Homo sapiens, UniProt Q92800); assay: Methyltransferase activity assay; type: biochemical; settings: for fold loss of potency for EZH1: relative to the parent compound 5
[2] = target: EZH2 trimeric complex (EZH2:EED:SUZ12) (Homo sapiens, UniProt Q15910); assay: Methyltransferase activity assay; type: biochemical; settings: for fold loss of potency for EZH2: relative to the parent compound of the sentence (5, 24 or 53)
EZH2 trimeric complex (EZH2:EED:SUZ12), sequence (Q15910 whole entry): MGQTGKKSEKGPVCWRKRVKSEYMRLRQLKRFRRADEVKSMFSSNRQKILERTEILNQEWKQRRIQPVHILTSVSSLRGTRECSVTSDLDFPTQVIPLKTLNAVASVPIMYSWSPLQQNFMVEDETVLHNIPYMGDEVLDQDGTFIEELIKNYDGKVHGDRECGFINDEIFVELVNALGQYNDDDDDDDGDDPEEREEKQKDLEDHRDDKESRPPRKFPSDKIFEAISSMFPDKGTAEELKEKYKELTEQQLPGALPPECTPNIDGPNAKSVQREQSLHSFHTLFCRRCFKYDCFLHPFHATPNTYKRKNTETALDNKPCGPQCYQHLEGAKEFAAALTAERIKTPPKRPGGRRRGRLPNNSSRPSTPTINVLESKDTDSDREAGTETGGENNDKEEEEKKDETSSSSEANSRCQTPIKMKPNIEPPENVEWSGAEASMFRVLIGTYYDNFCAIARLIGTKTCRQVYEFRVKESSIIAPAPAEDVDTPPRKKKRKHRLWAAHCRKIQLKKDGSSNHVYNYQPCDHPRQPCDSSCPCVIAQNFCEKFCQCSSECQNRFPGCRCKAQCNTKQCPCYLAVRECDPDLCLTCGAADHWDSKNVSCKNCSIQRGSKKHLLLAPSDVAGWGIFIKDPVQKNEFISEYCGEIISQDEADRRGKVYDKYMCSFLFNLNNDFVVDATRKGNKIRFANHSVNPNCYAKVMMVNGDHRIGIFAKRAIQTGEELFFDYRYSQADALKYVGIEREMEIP
EZH2 trimeric complex (EZH2:EED:SUZ12), sequence (O75530 whole entry partner): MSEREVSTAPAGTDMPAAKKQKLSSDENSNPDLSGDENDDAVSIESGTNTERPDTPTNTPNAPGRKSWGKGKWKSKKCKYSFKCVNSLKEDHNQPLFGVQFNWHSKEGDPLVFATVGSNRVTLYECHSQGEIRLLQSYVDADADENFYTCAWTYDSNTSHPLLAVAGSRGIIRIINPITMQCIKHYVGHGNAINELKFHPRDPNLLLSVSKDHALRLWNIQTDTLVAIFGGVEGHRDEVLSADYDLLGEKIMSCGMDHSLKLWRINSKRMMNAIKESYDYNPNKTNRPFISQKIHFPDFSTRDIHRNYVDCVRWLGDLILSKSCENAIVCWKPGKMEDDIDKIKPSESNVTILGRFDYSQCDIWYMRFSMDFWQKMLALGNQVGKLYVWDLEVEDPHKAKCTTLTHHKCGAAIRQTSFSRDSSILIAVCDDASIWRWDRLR
EZH2 trimeric complex (EZH2:EED:SUZ12), sequence (Q15022 whole entry partner): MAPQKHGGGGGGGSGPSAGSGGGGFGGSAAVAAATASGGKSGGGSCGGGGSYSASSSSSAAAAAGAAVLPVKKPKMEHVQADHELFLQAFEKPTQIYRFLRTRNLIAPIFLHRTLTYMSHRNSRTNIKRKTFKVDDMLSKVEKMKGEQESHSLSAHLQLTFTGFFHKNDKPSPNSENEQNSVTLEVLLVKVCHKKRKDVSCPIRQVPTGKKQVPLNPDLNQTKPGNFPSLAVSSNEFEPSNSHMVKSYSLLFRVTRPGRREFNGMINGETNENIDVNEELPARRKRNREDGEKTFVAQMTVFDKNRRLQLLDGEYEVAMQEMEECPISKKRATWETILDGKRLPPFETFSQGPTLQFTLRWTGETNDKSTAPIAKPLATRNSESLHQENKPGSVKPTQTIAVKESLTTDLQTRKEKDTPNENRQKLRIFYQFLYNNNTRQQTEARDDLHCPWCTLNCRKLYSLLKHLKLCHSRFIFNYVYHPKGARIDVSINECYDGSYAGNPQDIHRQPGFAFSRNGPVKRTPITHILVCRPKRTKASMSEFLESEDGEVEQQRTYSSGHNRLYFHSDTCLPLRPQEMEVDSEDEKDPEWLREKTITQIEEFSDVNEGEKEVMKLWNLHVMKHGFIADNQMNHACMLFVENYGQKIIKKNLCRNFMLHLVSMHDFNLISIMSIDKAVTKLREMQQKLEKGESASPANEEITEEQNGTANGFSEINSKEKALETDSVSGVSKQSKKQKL

EZH1 pentameric complex (EZH1:EED:SUZ12:RBBP4:AEBP2), sequence (Q92800 whole entry): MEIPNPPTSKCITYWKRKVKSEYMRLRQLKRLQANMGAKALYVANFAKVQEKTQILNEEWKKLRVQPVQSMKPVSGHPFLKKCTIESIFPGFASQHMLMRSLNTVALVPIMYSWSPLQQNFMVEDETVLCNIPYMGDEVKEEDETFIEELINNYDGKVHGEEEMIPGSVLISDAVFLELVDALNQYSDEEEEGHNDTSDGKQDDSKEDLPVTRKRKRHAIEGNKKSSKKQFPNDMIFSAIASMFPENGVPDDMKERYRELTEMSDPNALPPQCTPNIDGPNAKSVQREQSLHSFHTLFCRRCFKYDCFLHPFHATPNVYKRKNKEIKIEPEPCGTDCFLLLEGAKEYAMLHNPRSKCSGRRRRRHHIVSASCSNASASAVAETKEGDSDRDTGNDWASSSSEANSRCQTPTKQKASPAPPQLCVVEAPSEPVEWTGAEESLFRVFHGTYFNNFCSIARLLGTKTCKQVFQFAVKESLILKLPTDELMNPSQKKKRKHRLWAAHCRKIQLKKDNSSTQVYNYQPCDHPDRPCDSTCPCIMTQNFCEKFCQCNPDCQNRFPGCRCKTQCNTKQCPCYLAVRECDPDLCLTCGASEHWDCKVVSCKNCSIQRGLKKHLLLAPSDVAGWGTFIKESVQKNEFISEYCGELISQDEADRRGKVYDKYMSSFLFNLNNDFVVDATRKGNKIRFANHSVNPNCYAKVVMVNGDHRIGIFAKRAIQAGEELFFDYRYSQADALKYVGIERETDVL
EZH1 pentameric complex (EZH1:EED:SUZ12:RBBP4:AEBP2), sequence (O75530 whole entry partner): as the sequence (O75530 whole entry partner) above
EZH1 pentameric complex (EZH1:EED:SUZ12:RBBP4:AEBP2), sequence (Q15022 whole entry partner): as the sequence (Q15022 whole entry partner) above
EZH1 pentameric complex (EZH1:EED:SUZ12:RBBP4:AEBP2), sequence (Q09028 whole entry partner): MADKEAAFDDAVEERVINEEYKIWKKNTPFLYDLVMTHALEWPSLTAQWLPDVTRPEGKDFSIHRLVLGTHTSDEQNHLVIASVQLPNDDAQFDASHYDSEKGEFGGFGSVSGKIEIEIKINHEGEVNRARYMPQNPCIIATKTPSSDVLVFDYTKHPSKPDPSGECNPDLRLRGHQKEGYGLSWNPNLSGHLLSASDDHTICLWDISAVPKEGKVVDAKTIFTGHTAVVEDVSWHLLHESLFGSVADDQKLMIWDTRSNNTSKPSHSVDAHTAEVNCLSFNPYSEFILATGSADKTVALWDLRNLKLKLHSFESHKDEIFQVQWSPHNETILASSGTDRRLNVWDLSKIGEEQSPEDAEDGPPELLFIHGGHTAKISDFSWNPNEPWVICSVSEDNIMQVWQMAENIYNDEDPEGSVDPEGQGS
EZH1 pentameric complex (EZH1:EED:SUZ12:RBBP4:AEBP2), sequence (Q6ZN18 whole entry partner): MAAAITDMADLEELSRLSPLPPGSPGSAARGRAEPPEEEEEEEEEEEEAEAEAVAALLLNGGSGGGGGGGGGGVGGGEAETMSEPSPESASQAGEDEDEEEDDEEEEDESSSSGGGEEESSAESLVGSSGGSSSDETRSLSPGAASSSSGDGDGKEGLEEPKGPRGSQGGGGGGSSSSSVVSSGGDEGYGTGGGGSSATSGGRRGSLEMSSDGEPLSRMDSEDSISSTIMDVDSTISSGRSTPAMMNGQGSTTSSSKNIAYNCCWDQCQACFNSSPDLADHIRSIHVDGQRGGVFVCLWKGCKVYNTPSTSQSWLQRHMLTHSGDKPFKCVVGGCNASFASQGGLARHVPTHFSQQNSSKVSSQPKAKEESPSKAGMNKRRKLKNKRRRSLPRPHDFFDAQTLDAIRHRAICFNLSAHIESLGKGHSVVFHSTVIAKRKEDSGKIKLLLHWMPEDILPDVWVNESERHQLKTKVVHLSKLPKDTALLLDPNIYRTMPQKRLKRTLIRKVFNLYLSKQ

Compound | inhibitory activity against EZH1, in words [1] | inhibitory activity against EZH2, in words [2] | also measured
CCc1cc(C)[nH]c(=O)c1CNC(=O)c1cc(-c2ccc(N3CCN(C(C)C)CC3)nc2)cc2c1cnn2C(C)C [Compound 25, N-((4-Ethyl-6-methyl-2-oxo-1,2-dihydropyridin-3-yl)methyl)-1-isopropyl-6-(6-(4-isopropylpiperazin-1-yl)pyridin-3-yl)-1H-indazole-4-carboxamide] |  |  | fold increase in EZH1 potency ([1]; relative to compound 24): more than 3 fold
CCc1cc(C)c(CNC(=O)c2cc(-c3ccc(N4CCN(C(C)C)CC4)nc3)cc3c2cnn3C(C)C)c(=O)[nH]1 [Compound 30, N-((6-Ethyl-4-methyl-2-oxo-1,2-dihydropyridin-3-yl)methyl)-1-isopropyl-6-(6-(4-isopropylpiperazin-1-yl)pyridin-3-yl)-1H-indazole-4-carboxamide] | did not exhibit appreciable inhibitory activity |  | 
CCC(C)c1cc(C)c(CNC(=O)c2cc(-c3ccc(N4CCN(C(C)C)CC4)nc3)cc3c2cnn3C(C)C)c(=O)[nH]1 (stereo not shown) [Compound 31, N-((6-(sec-Butyl)-4-methyl-2-oxo-1,2-dihydropyridin-3-yl)-methyl)-1-isopropyl-6-(6-(4-isopropylpiperazin-1-yl)pyridin-3-yl)-1H-indazole-4-carboxamide] | did not exhibit appreciable inhibitory activity |  | 
CC(C)N1CCN(c2ccc(-c3cc(C(=O)NCc4ccc[nH]c4=O)c4cnn(C(C)C)c4c3)cn2)CC1 [Compound 34, 1-Isopropyl-6-(6-(4-isopropylpiperazin-1-yl)pyridin-3-yl)-N-((2-oxo-1,2-dihydropyridin-3-yl)methyl)-1H-indazole-4-carboxamide] |  |  | fold loss of potency for EZH2 [2]: > 500 fold
CCCc1cc(C)[nH]c(=O)c1CNC(=O)c1cc(-c2ccc(N3CCN(C(C)C)CC3)nc2)cc2nn(C(C)C)cc12 [Compound 44, 2-Isopropyl-6-(6-(4-isopropylpiperazin-1-yl)pyridin-3-yl)-N-((6-methyl-2-oxo-4-propyl-1,2-dihydropyridin-3-yl)methyl)-2H-inda-zole-4-carboxamide] |  |  | fold loss of potency for EZH2 [2]: more than 30 fold; fold loss of potency for EZH1 [1]: more than 30 fold
CCCc1cc(C)[nH]c(=O)c1CNC(=O)c1nn(C(C)C)c2cc(-c3ccc(N4CCN(C(C)C)CC4)nc3)ccc12 [Compound 45, 1-Isopropyl-6-(6-(4-isopropylpiperazin-1-yl)pyridin-3-yl)-N-((6-methyl-2-oxo-4-propyl-1,2-dihydropyridin-3-yl)methyl)-1H-inda-zole-3-carboxamide] | obliterated the inhibitory activity | obliterated the inhibitory activity | 
CCCc1cc(C)[nH]c(=O)c1CNC(=O)c1nn(C(C)C)c2ccc(-c3ccc(N4CCN(C(C)C)CC4)nc3)cc12 [Compound 46, 1-Isopropyl-5-(6-(4-isopropylpiperazin-1-yl)pyridin-3-yl)-N-((6-methyl-2-oxo-4-propyl-1,2-dihydropyridin-3-yl)methyl)-1H-inda-zole-3-carboxamide] | complete loss of potency | complete loss of potency | 
CCCc1cc(C)[nH]c(=O)c1CNC(=O)c1cc(-c2ccc(N3CCN(C(C)C)CC3)nc2)cc2c1cnn2CC1CCCC1 [Compound 58, 1-(Cyclopentylmethyl)-6-(6-(4-isopropylpiperazin-1-yl)pyridin-3-yl)-N-((6-methyl-2-oxo-4-propyl-1,2-dihydropyridin-3-yl)methyl)-1H-indazole-4-carboxamide] |  |  | fold loss of potency for EZH2 [2]: > 15 fold
CCCc1cc(C)[nH]c(=O)c1CNC(=O)c1cc(-c2ccc(N3CCN(C(C)C)CC3)nc2)cc2c1cnn2CCC1CCCCC1 [Compound 62, 1-(2-Cyclohexylethyl)-6-(6-(4-isopropylpiperazin-1-yl)pyridin-3-yl)-N-((6-methyl-2-oxo-4-propyl-1,2-dihydropyridin-3-yl)methyl)-1H-indazole-4-carboxamide] |  | significant drop in potency | 
CCCc1cc(C)[nH]c(=O)c1CNC(=O)c1cc(-c2ccccc2)cc2c1cnn2C(C)C [Compound 66, 1-Isopropyl-N-((6-methyl-2-oxo-4-propyl-1,2-dihydropyridin-3-yl)methyl)-6-phenyl-1H-indazole-4-carboxamide] |  | relatively good potency | 
CCCc1cc(C)[nH]c(=O)c1CNC(=O)c1cc(-c2ccc(F)cc2)cc2c1cnn2C(C)C [Compound 67] |  | relatively good potency | 
CCCc1cc(C)[nH]c(=O)c1CNC(=O)c1cc(-c2ccc(C(F)(F)F)cc2)cc2c1cnn2C(C)C [Compound 68, 1-Isopropyl-N-((6-methyl-2-oxo-4-propyl-1,2-dihydropyridin-3-yl)methyl)-6-(4-(trifluoromethyl)phenyl)-1H-indazole-4-carboxa-mide] |  | relatively good potency | 
CCCc1cc(C)[nH]c(=O)c1CNC(=O)c1cc(C2CCNCC2)cc2c1cnn2C(C)C [Compound 72, 1-Isopropyl-N-((6-methyl-2-oxo-4-propyl-1,2-dihydropyridin-3-yl)methyl)-6-(piperidin-4-yl)-1H-indazole-4-carboxamide] |  |  | fold loss of potency for EZH1 [1]: more than 10 fold
CCCc1cc(C)[nH]c(=O)c1CNC(=O)c1cc(N2CCNCC2)cc2c1cnn2C(C)C [Compound 73, 1-Isopropyl-N-((6-methyl-2-oxo-4-propyl-1,2-dihydropyridin-3-yl)methyl)-6-(piperazin-1-yl)-1H-indazole-4-carboxamide] |  |  | fold loss of potency for EZH1 [1]: more than 10 fold
CCCc1cc(C)[nH]c(=O)c1CNC(=O)c1cc(Br)cc2c1cnn2C(C)C [Compound 76, 6-Bromo-1-isopropyl-N-((6-methyl-2-oxo-4-propyl-1,2-dihydro-pyridin-3-yl)methyl)-1H-indazole-4-carboxamide] |  |  | fold loss of potency for EZH2 [2]: 3–4 fold

More lines, main results first:

inhibitory activity against EZH1, in words [1] | inhibitory activity against EZH2, in words [2] | Compound | also measured
complete loss of potency | complete loss of potency | Cc1cc(C(C)(C)C)[nH]c(=O)c1CNC(=O)c1cc(-c2ccc(N3CCN(C(C)C)CC3)nc2)cc2c1cnn2C(C)C [Compound 32, N-((6-(tert-Butyl)-4-methyl-2-oxo-1,2-dihydropyridin-3-yl)-methyl)-1-isopropyl-6-(6-(4-isopropylpiperazin-1-yl)pyridin-3-yl)-1H-indazole-4-carboxamide] | 
complete loss of potency | complete loss of potency | Cc1cc(-c2ccccc2)[nH]c(=O)c1CNC(=O)c1cc(-c2ccc(N3CCN(C(C)C)CC3)nc2)cc2c1cnn2C(C)C [Compound 33, 1-Isopropyl-6-(6-(4-isopropylpiperazin-1-yl)pyridin-3-yl)-N-((4-methyl-2-oxo-6-phenyl-1,2-dihydropyridin-3-yl)methyl)-1H-inda-zole-4-carboxamide] | 
total loss of potency | total loss of potency | Cc1cc(O)c(CNC(=O)c2cc(-c3ccc(N4CCN(C(C)C)CC4)nc3)cc3c2cnn3C(C)C)c(=O)[nH]1 [Compound 39, N-((4-Hydroxy-6-methyl-2-oxo-1,2-dihydropyridin-3-yl)methyl)-1-isopropyl-6-(6-(4-isopropylpiperazin-1-yl)pyridin-3-yl)-1H-inda-zole-4-carboxamide] | 
completely abrogated inhibitory activity | completely abrogated inhibitory activity | Cc1ncc(CNC(=O)c2cc(-c3ccc(N4CCN(C(C)C)CC4)nc3)cc3c2cnn3C(C)C)c(=O)[nH]1 [Compound 40, 1-Isopropyl-6-(6-(4-isopropylpiperazin-1-yl)pyridin-3-yl)-N-((2-methyl-6-oxo-1,6-dihydropyrimidin-5-yl)methyl)-1H-indazole-4-carboxamide] | 
completely abrogated inhibitory activity | completely abrogated inhibitory activity | CC(C)N1CCN(c2ccc(-c3cc(C(=O)NCc4cnc[nH]c4=O)c4cnn(C(C)C)c4c3)cn2)CC1 [Compound 41, 1-Isopropyl-6-(6-(4-isopropylpiperazin-1-yl)pyridin-3-yl)-N-((6-oxo-1,6-dihydropyrimidin-5-yl)methyl)-1H-indazole-4-carboxamide] | 
completely abrogated inhibitory activity | completely abrogated inhibitory activity | Cc1[nH]c(=O)[nH]c(=O)c1CNC(=O)c1cc(-c2ccc(N3CCN(C(C)C)CC3)nc2)cc2c1cnn2C(C)C [Compound 42, 1-Isopropyl-6-(6-(4-isopropylpiperazin-1-yl)pyridin-3-yl)-N-((6-methyl-2,4-dioxo-1,2,3,4-tetrahydropyrimidin-5-yl)methyl)-1H-in-dazole-4-carboxamide] | 
complete loss of potency | complete loss of potency | CC(C)N1CCN(c2ccc(-c3cc(C(=O)NC4CC(C)(C)NC(C)(C)C4)c4cnn(C(C)C)c4c3)cn2)CC1 [Compound 43, 1-Isopropyl-6-(6-(4-isopropylpiperazin-1-yl)pyridin-3-yl)-N-(2,2,6,6-tetramethylpiperidin-4-yl)-1H-indazole-4-carboxamide] | 
abolished all EZH1 inhibition |  | CCCc1cc(C)[nH]c(=O)c1CNC(=O)c1cc(-c2ccc(N3CCN(C(C)C)CC3)nc2)c2cnn(C(C)C)c2c1 [Compound 47, 1-Isopropyl-4-(6-(4-isopropylpiperazin-1-yl)pyridin-3-yl)-N-((6-methyl-2-oxo-4-propyl-1,2-dihydropyridin-3-yl)methyl)-1H-inda-zole-6-carboxamide] | 
 | significant drop in potency | CCCc1cc(C)[nH]c(=O)c1CNC(=O)c1cc(-c2ccc(N3CCN(C(C)C)CC3)nc2)cc2c1cnn2CC1CCCCC1 [Compound 59, 1-(Cyclohexylmethyl)-6-(6-(4-isopropylpiperazin-1-yl)pyridin-3-yl)-N-((6-methyl-2-oxo-4-propyl-1,2-dihydropyridin-3-yl)methyl)-1H-indazole-4-carboxamide] | 
